One compound from publication PMC12096079, “m^6A modification is incorporated into bacterial mRNA without specific functional benefit” (Nucleic Acids Research, 2025) can be followed below.

In this assay the target is YafS (Escherichia coli, UniProt P75672). Nature of the assay: intrinsic tryptophan fluorescence quenching titration (ex […] nm, em […] nm). The class given is binding.
Chain of YafS (P75672 whole entry): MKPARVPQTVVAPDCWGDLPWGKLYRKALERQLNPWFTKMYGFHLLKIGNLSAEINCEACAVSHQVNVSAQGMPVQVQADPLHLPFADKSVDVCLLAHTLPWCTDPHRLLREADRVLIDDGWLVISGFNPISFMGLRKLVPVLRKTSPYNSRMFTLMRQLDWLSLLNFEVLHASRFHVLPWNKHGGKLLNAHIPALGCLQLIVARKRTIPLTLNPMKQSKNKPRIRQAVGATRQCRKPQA

In the case of `C[S+](CC[C@H](N)C(=O)O)C[C@H]1O[C@@H](n2cnc3c(N)ncnc32)[C@H](O)[C@@H]1O` (stereo partly shown) [SAM], binding was put at a Kd of 0.68 ± 0.1 µM.
